Measurements: article PMC4594923, “Food Polyphenols Fail to Cause a Biologically Relevant Reduction of COX-2 Activity” (PLoS ONE, 2015)
Marks after values point to notes of the source that are not given here.

Tests used:
[1] = tested on: arachidonic acid (AA) cascade; experiment: liver tissue oxylipin/PG levels in LPS induced sepsis in mice; assay type: in vivo, C57BL/6N mice; conditions: liver tissue 24 h after LPS treatment;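 note: male C57BL/6N mice pretreated i.p. with polyphenols at 100 mg/kg bw or vehicle before LPS, liver oxylipins measured by LC-MS after solid-phase extraction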
Text: (§1) Twelve week old male C57BL/6N mice (Charles River, Sulzfeld, Germany) were used for all experiments. C57BL/6 male mice (H2^b, 11–13 weeks of age) were obtained from Charles River (Sulzfeld, Germany). Animals were cared for in accordance with the institution’s guidelines for experimental animals and with the guidelines of the American Physiological Society. […] Mice were monitored closely and if they appeared compromised (i.e. inactivity, no intake of food or water) after compound or LPS injection the experiment was terminated.
(§2) Oxylipin levels were analyzed in plasma and tissues by LC-MS following SPE extraction of 200 μl plasma or tissue homogenate (50 mg) on Chromabond C18 ec cartridges (Machery-Nagel, Düren, Germany) [19].
(§3) GraphPad Prism 5.0 (GraphPad Software, San Diego, USA) was used for data analysis, the fitting of dose response curves and calculation of the IC50 values. Statistical differences were determined by Dunnetts test (LPS vs. other groups).

[2] = tested on: arachidonic acid (AA) cascade; experiment: plasma oxylipin/PG levels in LPS induced sepsis in mice; assay type: in vivo, C57BL/6N mice; conditions: plasma 24 h after LPS treatment; LPS +; mean;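 note: male C57BL/6N mice given LPS, plasma oxylipins quantified by LC-MS after solid-phase extraction, pretreatment or vehicle given intraperitoneally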
Text: as §1, §2, §3

SMILES: O=c1c(-c2ccc(O)cc2)coc2cc(O)cc(O)c12 [Genistein, genistein]
- 4,5-DiHDPE concentration ([1]; mean): 64 nM
- 4-HDHA concentration ([1]; mean): 14 nM
- 5(6)-EpETrE concentration ([1]; mean): 90 nM
- 5,6-DiHETE concentration ([1]; mean): < 0.30 nM
- 5,6-DiHETrE concentration ([1]; mean): 6.3 nM
- 5-HEPE concentration ([1]; mean): 2.7 nM
- 5-HETE concentration ([1]; mean): 2.7 nM
- 5-iPF2α concentration ([1]; mean): < 1.0 nM
- 5-oxo-ETE concentration ([1]; mean): 19 nM
- 6-keto-PGF1α concentration ([1]; mean): 74 nM
- 7,8-DiHDPE concentration ([1]; mean): 6.3 nM
- 7-HDHA concentration ([1]; mean): 4.4 nM
- 8(9)-EpETE concentration ([1]; mean): 2.5 nM
- 8(9)-EpETrE concentration ([1]; mean): 20 nM
- 8,9-DiHETE concentration ([1]; mean): 2.6 nM
- 8,9-DiHETrE concentration ([1]; mean): 12 nM
- 8,15-DiHETE concentration ([1]; mean): 0.88 nM
- 8-HDHA concentration ([1]; mean): 25^* nM
- 8-HEPE concentration ([1]; mean): 1.2 nM
- 8-HETE concentration ([1]; mean): 10 nM
- 8-iPF2α concentration ([1]; mean): 3.0^* nM
- 9(10)-EpODE concentration ([1]; mean): 12 nM
- 9(10)-EpOME concentration ([1]; mean): 130 nM
- 9(10)-Epoxystearic acid concentration ([1]; mean): 82 nM
- 9,10,13-TriHOME concentration ([1]; mean): 8.6^* nM
- 9,10-DiHODE concentration ([1]; mean): 7.6 nM
- 9,10-DiHOME concentration ([1]; mean): 82 nM
- 9,10-Dihydroxystearic acid concentration ([1]; mean): 64 nM
- 9,12,13-TriHOME concentration ([1]; mean): 64 nM
- 9-HETE concentration ([1]; mean): 6.2 nM
- 9-HODE concentration ([1]; mean): 550 nM
- 9-HOTrE concentration ([1]; mean): 9.9 nM
- 9-oxo-ODE concentration ([1]; mean): 160 nM
- 10(11)-EpDPE concentration ([1]; mean): 33^* nM
- 10,11-DiHDPE concentration ([1]; mean): 11 nM
- 10-HDHA concentration ([1]; mean): 7.6 nM
- 11(12)-EpETE concentration ([1]; mean): 5.1^† nM
- 11(12)-EpETrE concentration ([1]; mean): 51 nM
- 11,12-DiHETE concentration ([1]; mean): 2.9 nM
- 11,12-DiHETrE concentration ([1]; mean): 22 nM
- 11-HDHA concentration ([1]; mean): 7.0 nM
- 11-HETE concentration ([1]; mean): 35 nM
- 12(13)-EpODE concentration ([1]; mean): 5.7 nM
- 12(13)-EpOME concentration ([1]; mean): 110 nM
- 12,13-DiHODE concentration ([1]; mean): 5.7 nM
- 12,13-DiHOME concentration ([1]; mean): 210 nM
- 12-HEPE concentration ([1]; mean): 39 nM
- 12-HETE concentration ([1]; mean): 150 nM
- 13(14)-EpDPE concentration ([1]; mean): 27^* nM
- 13,14-DiHDPE concentration ([1]; mean): 15 nM
- 13,14-dihydro-15-keto-PGE1 concentration ([1]; mean): 0.61 nM
- 13,14-dihydro-15-keto-PGF2α concentration ([1]; mean): 8.2^* nM
- 13-HDHA concentration ([1]; mean): 16^† nM
- 13-HODE concentration ([1]; mean): 530 nM
- 13-HOTrE concentration ([1]; mean): 18 nM
- 13-oxo-ODE concentration ([1]; mean): 20 nM
- 14(15)-EpETE concentration ([1]; mean): 3.3 nM
- 14(15)-EpETrE concentration ([1]; mean): 44^* nM
- 14,15-DiHETE concentration ([1]; mean): 8.6 nM
- 14,15-DiHETrE concentration ([1]; mean): 62 nM
- 14-HDHA concentration ([1]; mean): 97 nM
- 15(16)-EpODE concentration ([1]; mean): 27 nM
- 15(S)-HETrE concentration ([1]; mean): 14 nM
- 15,16-DiHODE concentration ([1]; mean): 63 nM
- 15-HEPE concentration ([1]; mean): 4.0 nM
- 15-HETE concentration ([1]; mean): 40 nM
- 15-oxo-ETE concentration ([1]; mean): 5.8 nM
- 16(17)-EpDPE concentration ([1]; mean): 27^* nM
- 16,17-DiHDPE concentration ([1]; mean): 35 nM
- 16-HDHA concentration ([1]; mean): 8.1^* nM
- 17(18)-EpETE concentration ([1]; mean): 4.6 nM
- 17,18-DiHETE concentration ([1]; mean): 19 nM
- 17-HDHA concentration ([1]; mean): 25 nM
- 18-HEPE concentration ([1]; mean): 4.6 nM
- 19(20)-EpDPE concentration ([1]; mean): 40^* nM
- 19,20-DiHDPE concentration ([1]; mean): 170 nM
- 20-HDHA concentration ([1]; mean): 27^* nM
- 20-HEPE concentration ([1]; mean): 22 nM
- 20-HETE concentration ([1]; mean): 6.3 nM
- EKODE concentration ([1]; mean): 40 nM
- PGD1 concentration ([1]; mean): 2.3 nM
- PGD2 concentration ([1]; mean): 42 nM
- PGE1 concentration ([1]; mean): 3.7 nM
- PGE2 concentration ([1]; mean): 21 nM
- PGF1α concentration ([1]; mean): 6.9 nM
- TXB2 concentration ([1]; mean): 31 nM
- TxB3 concentration ([1]; mean): 1.2 nM
- dihomo-PGF2α concentration ([1]; mean): 5.3 nM
- PGF2α concentration ([1]; mean (first listing, r6)): 57 nM
- PGF2α concentration ([1]; mean (second listing, r9)): 57 nM
- 1a,1b-dihomo-PGF2α concentration in plasma [2]: 0.33 nM
- 4,5-DiHDPE concentration in plasma [2]: 10 nM
- 4-HDHA concentration in plasma [2]: 2.0 nM
- 5(6)-EpETrE concentration in plasma [2]: 8.9 nM
- 5,6-DiHETrE concentration in plasma [2]: 0.72 nM
- 5-HEPE concentration in plasma [2]: 0.33 nM
- 5-HETE concentration in plasma [2]: 3.1 nM
- 5-iPF2α concentration in plasma [2]: < 0.50 nM
- 5-oxo-ETE concentration in plasma [2]: 1.2 nM
- 6-keto-PGF1α concentration in plasma [2]: 2.4 nM
- 7,8-DiHDPE concentration in plasma [2]: 1.1 nM
- 7-HDHA concentration in plasma [2]: 0.64 nM
- 8(9)-EpETrE concentration in plasma [2]: 2.3 nM
- 8,9-DiHETrE concentration in plasma [2]: 2.1 nM
- 8-HDHA concentration in plasma [2]: 4.0 nM
- 8-HEPE concentration in plasma [2]: 0.72 nM
- 8-HETE concentration in plasma [2]: 9.6 nM
- 8-iPF2a concentration in plasma [2]: 0.24 nM
- 9(10)-EpODE concentration in plasma [2]: 3.5 nM
- 9(10)-EpOME concentration in plasma [2]: 37 nM
- 9(10)-Epoxystearic acid concentration in plasma [2]: 31 nM
- 9,10,13-TriHOME concentration in plasma [2]: 1.5 nM
- 9,10-DiHODE concentration in plasma [2]: 4.8 nM
- 9,10-DiHOME concentration in plasma [2]: 63 nM
- 9,10-Dihydroxystearic acid concentration in plasma [2]: 15 nM
- 9,12,13-TriHOME concentration in plasma [2]: 9.6 nM
- 9-HODE concentration in plasma [2]: 96 nM
- 9-HOTrE concentration in plasma [2]: 4.1 nM
- 9-oxo-ODE concentration in plasma [2]: 16 nM
- 10(11)-EpDPE concentration in plasma [2]: 3.0 nM
- 10,11-DiHDPE concentration in plasma [2]: 0.90 nM
- 10-HDHA concentration in plasma [2]: 16 nM
- 11(12)-EpETrE concentration in plasma [2]: 2.7 nM
- 11,12-DiHETE concentration in plasma [2]: 0.19 nM
- 11,12-DiHETrE concentration in plasma [2]: 1.9 nM
- 11-HDHA concentration in plasma [2]: 1.2 nM
- 11-HETE concentration in plasma [2]: 2.7 nM
- 12(13)-EpODE concentration in plasma [2]: 1.8 nM
- 12(13)-EpOME concentration in plasma [2]: 34 nM
- 12,13-DiHODE concentration in plasma [2]: 4.7 nM
- 12,13-DiHOME concentration in plasma [2]: 214 nM
- 12-HEPE concentration in plasma [2]: 140 nM
- 12-HETE concentration in plasma [2]: 1200 nM
- 13(14)-EpDPE concentration in plasma [2]: 2.0 nM
- 13,14-DiHDPE concentration in plasma [2]: 0.96 nM
- 13,14-dihydro-15-keto-PGE1 concentration in plasma [2]: 0.18 nM
- 13,14dihydro-15-keto-PGF2α concentration in plasma [2]: 0.43 nM
- 13-HDHA concentration in plasma [2]: 2.8 nM
- 13-HODE concentration in plasma [2]: 240 nM
- 13-HOTrE concentration in plasma [2]: 15 nM
- 13-oxo-ODE concentration in plasma [2]: 2.7 nM
- 14(15)-EpETE concentration in plasma [2]: 0.21 nM
- 14(15)-EpETrE concentration in plasma [2]: 2.0 nM
- 14,15-DiHETE concentration in plasma [2]: 0.41 nM
- 14,15-DiHETrE concentration in plasma [2]: 4.3 nM
- 14-HDHA concentration in plasma [2]: 450 nM
- 15(16)-EpODE concentration in plasma [2]: 2.0 nM
- 15(S)-HETrE concentration in plasma [2]: 2.7 nM
- 15,16-DiHODE concentration in plasma [2]: 40 nM
- 15-HEPE concentration in plasma [2]: 0.96 nM
- 15-HETE concentration in plasma [2]: 5.1 nM
- 15-oxo-ETE concentration in plasma [2]: 0.42 nM
- 16(17)-EpDPE concentration in plasma [2]: 2.1 nM
- 16,17-DiHDPE concentration in plasma [2]: 2.2 nM
- 16-HDHA concentration in plasma [2]: 1.9 nM
- 17(18)-EpETE concentration in plasma [2]: 1.2 nM
- 17,18-DiHETE concentration in plasma [2]: 2.3 nM
- 17-HDHA concentration in plasma [2]: 21 nM
- 18-HEPE concentration in plasma [2]: 0.45 nM
- 19(20)-EpDPE concentration in plasma [2]: 14 nM
- 19,20-DiHDPE concentration in plasma [2]: 19 nM
- 20-HDHA concentration in plasma [2]: 3.7 nM
- 20-HEPE concentration in plasma [2]: 2.8 nM
- 20-HETE concentration in plasma [2]: 1.7 nM
- EKODE concentration in plasma [2]: 9.9 nM
- PGD2 concentration in plasma [2]: < 0.50 nM
- PGE2 concentration in plasma [2]: 0.95 nM
- PGF1α concentration in plasma [2]: 0.13 nM
- PGF2α concentration in plasma [2]: 0.44 nM
- TXB2 concentration in plasma [2]: 2.6 nM
